Source: patent US9034871B2, “Compounds for Alzheimer's disease” (priority 2004, dated 2015)

The molecules below were run on Aβ42 (assay: Detection of secreted Aβ42 with Biosource ELISA kit in H4 cells expressing APP695). Settings: Ab42 lowering, cell based assay; read-out: Ab42 IC50.
Type: cell-based
Experimental: The present invention provides compositions and methods for lowering Aβ42 levels. To test whether compounds and compositions are capable of modulating Aβ levels, a sandwich enzyme-linked immunosorbent assay (ELISA) is employed to measure secreted Aβ (Aβ42 and/or Aβ40) levels. In this example, H4 cells expressing wide type APP695 are seeded at 200,000 cells/per well in 6 well plates, and incubated at 37 degree C. with 5% CO2 overnight. Cells are treated with 1.5 ml medium containing vehicle (DMSO) or a test compound at 1.25 μM, 2.5 μM, 5.0 μM and 10.0 μM (as well as other concentration if desirable) concentration for 24 hours or 48 hours. The supernatant from treated cells is collected into eppendorf tubes and frozen at −80 degree C. for future analysis.
The amyloid peptide standard is reconstituted and frozen samples are thawed. The samples and standards are diluted with appropriate diluents and the plate is washed 4 times with Working Wash Buffer and patted dry on a paper towel. 100 μL per well of peptide standards, controls, and dilutions of samples to be analyzed is added. The plate is incubated for 2 hours while shaking on an orbital plate shaker at RT. The plate is then washed 4 times with Working Wash Buffer and patted dry on a paper towel. Detection Antibody Solution is poured into a reservoir and 100 μL /well of Detection Antibody Solution is immediately added to the plate. The plate is incubated at RT for 2 hours while shaking and then washed four times with Working Wash Buffer and patted dry on a paper towel. Secondary Antibody Solution is then poured into a reservoir and 100 μL /well of Secondary Antibody Solution is immediately added to the plate. The plate is incubated at RT for 2 hours with shaking, washed 5 times with Working Wash Buffer, and patted dry on a paper towel.
100 μL of stabilized chromogen is added to each well and the liquid in the wells begins to turn blue. The plate is incubated for 30 minutes at room temperature and in the dark. 100 μL of stop solution is added to each well and the plate is tapped gently to mix resulting in a change of solution color from blue to yellow. The absorbance of each well is read at 450 nm having blanked the plate reader against a chromogen blank composed of 100 μL each of stabilized chromogen and stop solution. The plate is read within 2 hours of adding the stop solution. The absorbance of the standards is plotted against the standard concentration and the concentrations of unknown samples and controls are calculated.
These compounds were synthesized via the indicated synthetic route. Ab42 IC50 (uM) refers to IC50 value for Ab42 lowering in e.g., the assay described in Example 6.

Row | Compound | IC50
1 | CC1CCc2c(cc(-c3ccccc3)n2-c2ccc(C(=O)O)o2)C1 (stereo not drawn) [5-(5-methyl-2-phenyl-4,5,6,7-tetrahydroindol-1-yl) furan-2-carboxylic acid] | > 100 µM
2 | O=C(O)c1ccc(-c2cc3c(n2-c2cccnc2)CCc2ccccc2-3)cc1 [4-(3-pyridin-3-yl-4,5-dihydro-3H-benzo[e]indol-2-yl) benzoic acid] | > 100 µM
3 | O=C(O)c1cccc(-c2cc3c4ccccc4ccc3n2-c2ccoc2)c1 [3-(3-furan-3-yl-3H-benzo[e]indol-2-yl) benzoic acid] | > 100 µM
4 | O=C(O)c1coc(Cn2c(-c3cc(-c4ccccc4)no3)cc3c4ccccc4ccc32)c1 [5-[2-(3-phenylisoxazol-5-yl)-benzo[e]indol-3-ylmethyl] furan-3-carboxylic acid] | > 100 µM
5 | O=C(O)c1cccc(-n2c(-c3cc4ccccc4o3)cc3c2CCc2ccccc2-3)c1 [3-(2-benzofuran-2-yl-4,5-dihydrobenzo[e]indol-3-yl) benzoic acid] | 0.56 µM
6 | c1cncc(-c2cc3c4ccccc4ccc3n2-c2cccc(-c3nn[nH]n3)c2)c1 [2-pyridin-3-yl-3-[3-(2H-tetrazol-5-yl)-phenyl]-3H-benzo[e]indole] | 46 µM
7 | O=C(O)c1ccc(-n2c(-c3cc(-c4ccccc4)no3)cc3c4ccccc4ccc32)o1 [5-[2-(3-phenylisoxazol-5-yl)-benzo[e]indol-3-yl] furan-2-carboxylic acid] | 33 µM
8 | CC(C)(C)C1CCc2c(cc(-c3ccccc3)n2-c2nnc[nH]2)C1 (stereo not drawn) [5-tButyl-2-phenyl-1-(4H-[1,2,4]triazol-3-yl)-4,5,6,7-tetrahydro-1H-indole] | 63 µM
9 | c1ccc(-c2cc3c(n2-c2cccc(-c4nn[nH]n4)c2)CCCC3)cc1 | 100 µM
10 | O=C(O)c1cccc(-n2c(-c3ccncc3)cc3c2CCc2ccccc2-3)c1 [3-(2-pyridin-4-yl-4,5-dihydrobenzo[e]indol-3-yl) benzoic acid] | 65 µM
11 | O=C(O)c1ccc(-n2c(-c3ccccc3)cc3c2CC(C(F)(F)F)CC3)o1 (stereo not drawn) [5-(2-phenyl-6-trifluoromethyl 4,5,6,7-tetrahydroindol-1-yl)-furan-2-carboxylic acid] | 25 µM
12 | O=C(O)c1cccc(-n2c(-c3ccc(-c4ccc(Cl)cc4Cl)o3)cc3c4ccccc4ccc32)c1 [3-{2-[5-(2,4-dichlorophenyl)-furan-2-yl]-benzo[e]indol-3-yl} benzoic acid] | 33 µM
13 | CC1CCc2cc(-c3ccccc3)n(-c3ccc(C(=O)O)o3)c2C1 (stereo not drawn) [5-(6-methyl-2-phenyl-4,5,6,7-tetrahydroindol-1-yl) furan-2-carboxylic acid] | > 100 µM
14 | Cc1onc(-c2ccccc2)c1-c1cc2c3ccccc3ccc2n1-c1ccc(CCCC(=O)O)cc1 [4-{4-[2-(5-methyl-3-phenylisoxazol-4-yl)-benzo[e]indol-3-yl]-phenyl} butyric acid] | 1 µM
15 | CCC(C)(C)C1CCc2c(cc(-c3ccccc3)n2-c2nc(CC(=O)O)cs2)C1 (stereo not drawn) [{2-[5-(1,1-dimethylpropyl)-2-phenyl-4,5,6,7-tetrahydroindol-1-yl]-thiazol-4-yl} acetic acid] | 6.5 µM
16 | O=C(O)c1cccc(-n2c(-c3cc(-c4ccccc4)no3)cc3c2CCc2ccccc2-3)c1 [drawing 1709] | 2.2 µM
17 | O=C(O)c1cccc(-n2c(-c3cccnc3)cc3c2CCc2ccccc2-3)c1 [3-(2-pyridin-3-yl-4,5-dihydrobenzo[e]indol-3-yl) benzoic acid] | > 100 µM
18 | O=C(O)CCCc1ccc(-n2c(-c3ccc4c(c3)OCO4)cc3c4ccccc4ccc32)cc1 | 8.9 µM
19 | O=C(O)c1cccc(-n2c(-c3cccnc3)cc3c4ccccc4ccc32)c1 [3-(2-pyridin-3-yl-benzo[e]indol-3-yl) benzoic acid] | > 100 µM
20 | Cc1onc(-c2ccccc2)c1-c1cc2c(n1-c1ccc(CCCC(=O)O)cc1)CCc1ccccc1-2 [4-{4-[2-(5-methyl-3-phenylisoxazol-4-yl)-4,5-dihydrobenzo[e]indol-3-yl]-phenyl} butyric acid] | 1.5 µM
21 | O=C(O)c1ccc(-n2c(-c3ccccc3)cc3c2CCC(C(F)(F)F)C3)o1 (stereo not drawn) [5-(2-phenyl-5-trifluoromethyl 4,5,6,7-tetrahydroindol-1-yl)-furan-2-carboxylic acid] | 16.5 µM
22 | O=C(O)c1cccc(-n2c(-c3cc4ccccc4o3)cc3c4ccccc4ccc32)c1 [3-(2-benzofuran-2-yl-benzo[e]indol-3-yl) benzoic acid] | 1.17 µM
23 | O=C(O)c1ccc(-n2c(-c3ccc(Cl)c(Cl)c3)cc3c4ccccc4ccc32)o1 [5-[2-(3,4-dichlorophenyl)-benzo[e]indol-3-yl]-furan-2-carboxylic acid] | 7 µM
24 | O=C(O)CCCc1ccc(-n2c(-c3ccc4c(c3)OCO4)cc3c2CCc2ccccc2-3)cc1 [4-[4-(2-benzo[1,3]dioxol-5-yl-dihydrobenzo[e]indol-3-yl)-phenyl] butyric acid] | 8.8 µM
25 | CCC(C)(C)C1CCc2c(cc(-c3cc4ccccc4o3)n2-c2ccc(C(=O)O)o2)C1 (stereo not drawn) [5-[2-benzofuran-2-yl-5-(1,1-dimethylpropyl) 4,5,6,7-tetrahydroindol-1-yl]-furan-2-carboxylic acid] | 18 µM

Same assay, conditions: IC50 value for Ab42 lowering in e.g. the assay described in Example 6; read-out: Ab42 IC50

Row | Compound | IC50
26 | O=C(O)CCCc1ccc(-n2c(-c3ccccc3)cc3c4ccccc4ccc32)cc1 [Compound 89, 4-[4-(2-phenyl-benzo[e]indol-3-yl)-phenyl] butyric acid] | 8 µM
27 | O=C(O)C1CCCC(n2c(-c3ccccc3)cc3c4ccccc4ccc32)C1 (stereo not drawn) [Compound 66, 3-(2-phenylbenzo[e]indol-3-yl) cyclohexane carboxylic acid] | 54 µM
28 | O=C(O)c1cccc(-n2c(-c3ccccc3)cc3ccccc32)c1 [Compound 17, 3-(2-phenylindol 1-yl) benzoic acid] | 55 µM
29 | O=C(O)CCCn1c(-c2ccccc2)cc2c3ccccc3ccc21 [Compound 68, 4-(2-phenyl-benzo[e]indol-3-yl) butyric acid] | 31 µM
30 | CC(C)(C)C1CCc2c(cc(-c3ccccc3)n2-c2cccc(CCC(=O)O)c2)C1 (stereo not drawn) [Compound 85, 3-[3-(5-tert-Butyl-2-phenyl 4,5,6,7-tetrahydroindol-1-yl)-phenyl] propionic acid] | 20 µM
31 | CC1CCc2c(cc(-c3ccccc3)n2-c2cccc(CCC(=O)O)c2)C1 (stereo not drawn) [Compound 88, 3-[3-(5-methyl-2-phenyl-4,5,6,7-tetrahydroindol-1-yl)-phenyl] propionic acid] | 27 µM
32 | O=C(O)CCCn1c(-c2ccccc2)cc2c1CCc1ccccc1-2 [Compound 67, 4-(2-phenyl-4,5-dihydrobenzo[e]indol-3-yl) butyric acid] | 35 µM
33 | CC(C)(C)C1CCc2c(cc(-c3ccccc3)n2-c2cccc(C(=O)O)c2)C1 (stereo not drawn) [Compound 34, 3-(5-tert-butyl-2-phenyl-4,5,6,7-tetrahydroindol-1-yl)benzoic acid] | 8 µM
34 | O=C(O)c1ccc(-c2cc3c(n2-c2ccccc2)CCc2ccccc2-3)cc1 [Compound 69, 4-(3-phenyl-4,5-dihydro-3H-benzo[e]indol-2-yl) benzoic acid] | 45 µM
35 | O=C(O)Cc1ccccc1-n1c(-c2ccccc2)cc2c1CCc1ccccc1-2 [Compound 92, [2-(2-phenyl-4,5-dihydrobenzo[e]indol-3-yl)-phenyl] acetic acid] | 27 µM

Same assay, conditions: cell based assay described in Example 6; read-out: Ab42 lowering IC50

Row | Compound | IC50
36 | O=C(O)c1cccc(-n2c(-c3cc(-c4ccccc4)no3)cc3c2CCc2ccccc2-3)c1 [Compound 139] | 2 µM
